# Assay results as given in patent US20070249725A1, “Pharmaceutical formulations of sympathetic antagonist for the treatment of chronic muscle pain” (priority 2006, published 2007).
# Counter-ions that a name gives are not always drawn.
# How the values were obtained:
# trigger point = assay: Efficacy and dosage study for intramuscular injection of phenoxybenzamine hydrochloride: subject-reported percent improvement from baseline; assay type: in vivo, human
# Procedure: A total of 326 male and female subjects, approximately 15 to 85 years old with pain of 4-72 month duration were treated with various doses of phenoxybenzamine. If a potential subject had pain that was clearly muscular and clearly not due to arthritis, nerve root compression or other extramuscular cause, the subject was considered a candidate for phenoxybenzamine hydrochloride injection. Trigger points were identified by palpation. A monopolar EMG needle was then inserted into the trigger point. Another monopolar EMG needle was inserted into a nearby nontender fibers of the same muscle. […] The treatment was repeated in up to 10-12 trigger points per treatment session. Subjects could return for up to 6 treatment sessions, depending on the extent of their pain. The initial treatment was with a dose of 25 mg of phenoxybenzamine hydrochloride in an injection volume of 2 ml. […] For 318 subjects, data were available for analysis for the doses of phenoxybenzamine hydrochloride used, efficacy and incidence of serious adverse events.
# Subjects were asked to quantify, in terms of percent improvement from baseline, how they felt after treatment.
# [1] = pH of phenoxybenzamine formulations; assay type: physicochemical; conditions: active solutions
# Procedure: (§1) This was a multicenter, randomized, placebo-controlled, double-blind, dose response study of intramuscular phenoxybenzamine hydrochloride (PBZ) versus vehicle and saline placebos. Phenoxybenzamine formulation known in the art (propylene glycol and alcohol) and diluted in saline at the time of injection were evaluated. […] Patients with pain in the most commonly affected regions, the upper and lower back, were studied. Patients enrolled in this study were male or female with 4 months to 8 years of myofascial pain syndrome with identifiable active trigger points. Patients were required to have had EMG documented triggers points and meet the criteria of <10 uV in the adjacent muscle site and have a minimum of a 2:1 ratio of trigger point amplitude: adjacent amplitude. Attempts were made to obtain maximum amplitude in the trigger point.
# For determination of the pH value of the active solutions, a 5% solution of the Phenoxybenzamine HCL measured 3.25. Examples of packaging material include 2-mL vials, Pharmatek Lot No. 0001, Part No. PTC-0001; rubber stoppers, Pharmatek Lot No. 0002, Part No. PTC-0002; Truedge® seals, Pharmatek Lot No. 0003, Part No. PTC-0003; Supor® filters, Pharmatek Lot No. 0005, Part No. PTC-0004; and labels, to be generated by PrimaPharm Inc. These can be supplied in the form of a kit.
# active trigger points = assay: Multicenter, randomized, placebo-controlled, double-blind dose response study of intramuscular PBZ: efficacy (Example II); assay type: in vivo, human
# Procedure: as §1
# The primary objectives of this study were to evaluate the safety, tolerance, and efficacy of 4 doses (0.1, 0.3, 1.0, or 2.4 mg) of phenoxybenzamine per intramuscular injection site. The vehicle placebo group received vehicle in a concentration equivalent to the active doses. A second placebo was saline. All injections were of 0.3 ml in volume. Up to 10 trigger points were injected at each treatment session. There were up to 2 treatment sessions up to 10 days apart. The primary efficacy evaluation was made at week 12 of treatment. The Visual Analogue Pain Scale (VAS) was used to assess pain in the affected region before and after treatment. Secondary efficacy assessments included the McGill Pain Questionnaire (MPQ), the Spinal Function Sort (SFS) and the SF-36 Quality of Life questionnaire.
structure (smiles),measurement,setting,value
"CC(COc1ccccc1)N(CCCl)Cc1ccccc1 (centres unmarked) [Phenoxybenzamine Hydrochloride, phenoxybenzamine hydrochloride]",Mean % improvement,"trigger point; 3 mg dose, Two month, 178 subjects (Interim data)",54.9%
same,% of Subjects with Greater than 25% Improvement,"trigger point; 10 mg dose, Four month, 84 subjects",63%
same,% of Subjects with Greater than 25% Improvement,"trigger point; 10 mg dose, One month, 84 subjects",52%
same,% of Subjects with Greater than 25% Improvement,"trigger point; 10 mg dose, Three month, 84 subjects",66%
same,% of Subjects with Greater than 25% Improvement,"trigger point; 10 mg dose, Two month, 84 subjects",68%
same,% of Subjects with Greater than 25% Improvement,"trigger point; 25 mg dose, Four month, 16 subjects",53%
same,% of Subjects with Greater than 25% Improvement,"trigger point; 25 mg dose, One month, 16 subjects",57%
same,% of Subjects with Greater than 25% Improvement,"trigger point; 25 mg dose, One week, 16 subjects",40%
same,% of Subjects with Greater than 25% Improvement,"trigger point; 25 mg dose, Two month, 16 subjects",66%
same,% of Subjects with Greater than 25% Improvement,"trigger point; 10-12.5 mg dose, Four month, 8 subjects",100%
same,% of Subjects with Greater than 25% Improvement,"trigger point; 10-12.5 mg dose, One month, 8 subjects",50%
same,% of Subjects with Greater than 25% Improvement,"trigger point; 10-12.5 mg dose, Two month, 8 subjects",83%
same,subjects reported no improvement in pain,"trigger point; Example 1, after treatment",About 15%
same,pH of a 5% solution,[1],3.25
same,efficacy of formulations in this study,active trigger points; 1.0 mg and 2.4 mg in propylene glycol and alcohol composition,ineffective
same,difference in percent change from baseline between placebo and active drug,"active trigger points; 1.0 mg group, not statistically significant",9.9%
same,efficacy compared with placebo,active trigger points; 2.4 mg group,equivalent to placebo
